In patent US20210308173A1, “PHARMACEUTICAL COMPOSITION COMPRISING CYCLODEXTRIN COMPLEXES OF ANETHOLE TRITHIONE OR DERIVATIVES THEREOF” (priority 2018, published 2021):
≈ marks a conversion by molar mass, not a printed value. Where two headings read alike, the source gives them in different places.

Assay: Cyclodextrin-AOL solubility diagrams
Assay type: physicochemical
Conditions: for solubility: 4 °C; for solubility / solubility at 4 h: aqueous with cosolvent or surfactant or cyclodextrin, thermodynamic from solid
Excerpt: A cyclodextrin-AOL solubility diagram would reveal the profile of the solubility curve of the AOL depending on the concentration of the cyclodextrin. The principle of this method is to add an excess of AOL to cyclodextrin solutions of increasing concentration, then to measure the amount of solubilized AOL. This method confirms the solubilization and evaluates more precisely the cyclodextrin solubilizing power, to define a stoichiometry of the complexes (molar and mass ratios) over the entire range of concentrations studied and to estimate the solubility limit and the stability of the mixtures.
The solubilization was carried out with HP-β-CD and SBE-β-CD in a range of concentration ranging from 2.5% to 40% (m/m) at 20° C., 25° C. and 30° C. To check the stability of the solution, a storage test at 4° C. for 48 hours was carried out with the solutions previously prepared at 20° C.
Aqueous solutions of cyclodextrin at in weight (m/m) concentrations of 2.5%, 5%, 10%, 20%, 30% and 40% were prepared in pure water. An excess of AOL was suspended in 2 mL each of these solutions. Each sample is shaken at 20° C., 25° C. or 30° C. for 4 hours (vortex at 1400 rpm). Each sample is centrifuged (12,500 g) and filtered through a 0.45 μm membrane.
The solubility of AOL in each test solution was quantified by HPLC as detailed in Example 2.

[1] = SBE-β-CD 20% (w/w), 20° C. followed by 48 hours at 4° C.
[2] = SBE-β-CD 30% (w/w), 20° C. followed by 48 hours at 4° C.
[3] = SBE-β-CD 40% (w/w), 20° C. followed by 48 hours at 4° C.

- CD/AOL weight ratio Rm (SBE-β-CD 20% (w/w), 20° C.): 722
- CD/AOL molar ratio RM [1]: 130
- CD/AOL weight ratio Rm [1]: 1211
- CD/AOL molar ratio RM (SBE-β-CD 20% (w/w), 25° C.): 63
- CD/AOL weight ratio Rm (SBE-β-CD 20% (w/w), 25° C.): 587
- CD/AOL molar ratio RM (SBE-β-CD 20% (w/w), 30° C.): 50
- CD/AOL weight ratio Rm (SBE-β-CD 20% (w/w), 30° C.): 469
- CD/AOL molar ratio RM (SBE-β-CD 30% (w/w), 20° C.): 70
- CD/AOL weight ratio Rm (SBE-β-CD 30% (w/w), 20° C.): 650
- CD/AOL molar ratio RM [2]: 112
- CD/AOL weight ratio Rm [2]: 1049
- CD/AOL molar ratio RM (SBE-β-CD 30% (w/w), 25° C.): 56
- CD/AOL weight ratio Rm (SBE-β-CD 30% (w/w), 25° C.): 522
- CD/AOL molar ratio RM (SBE-β-CD 30% (w/w), 30° C.): 45
- CD/AOL weight ratio Rm (SBE-β-CD 30% (w/w), 30° C.): 417
- CD/AOL molar ratio RM (SBE-β-CD 40% (w/w), 20° C.): 64
- CD/AOL weight ratio Rm (SBE-β-CD 40% (w/w), 20° C.): 600
- CD/AOL molar ratio RM [3]: 94
- CD/AOL weight ratio Rm [3]: 876
- CD/AOL molar ratio RM (SBE-β-CD 40% (w/w), 25° C.): 51
- CD/AOL weight ratio Rm (SBE-β-CD 40% (w/w), 25° C.): 474
- CD/AOL molar ratio RM (SBE-β-CD 40% (w/w), 30° C.): 41
- CD/AOL weight ratio Rm (SBE-β-CD 40% (w/w), 30° C.): 383
- solubility (aqueous HP-β-CD solution, HP-β-CD 2.5% (w/w), 20° C. followed by 48 hours at 4° C.): 11.6 µg/mL (≈ 48.3 µM)
- solubility (aqueous HP-β-CD solution, HP-β-CD 5% (w/w), 20° C. followed by 48 hours at 4° C.): 25.1 µg/mL (≈ 104 µM)
- solubility (aqueous HP-β-CD solution, HP-β-CD 10% (w/w), 20° C. followed by 48 hours at 4° C.): 52.7 µg/mL (≈ 219 µM)
- solubility (aqueous HP-β-CD solution, HP-β-CD 20% (w/w), 20° C. followed by 48 hours at 4° C.): 109 µg/mL (≈ 452 µM)
- solubility (aqueous HP-β-CD solution, HP-β-CD 30% (w/w), 20° C. followed by 48 hours at 4° C.): 187 µg/mL (≈ 777 µM)
- solubility (aqueous HP-β-CD solution, HP-β-CD 40% (w/w), 20° C. followed by 48 hours at 4° C.): 270 µg/mL (≈ 1120 µM)
- solubility at 4 h (aqueous HP-β-CD solution, 20 °C, HP-β-CD 2.5% (w/w), 20° C., read-out: AOL solubility): 13.4 µg/mL (≈ 55.7 µM)
- solubility at 4 h (aqueous HP-β-CD solution, 20 °C, HP-β-CD 5% (w/w), 20° C., read-out: AOL solubility): 27.3 µg/mL (≈ 114 µM)
- solubility at 4 h (aqueous HP-β-CD solution, 30 °C, HP-β-CD 40% (w/w), 30° C., read-out: AOL solubility): 644 µg/mL (≈ 2680 µM)
- solubility (aqueous SBE-β-CD solution, SBE-β-CD 2.5% (w/w), 20° C. followed by 48 hours at 4° C.): 16.9 µg/mL (≈ 70.3 µM)
- solubility (aqueous SBE-β-CD solution, SBE-β-CD 5% (w/w), 20° C. followed by 48 hours at 4° C.): 34.6 µg/mL (≈ 144 µM)
- solubility (aqueous SBE-β-CD solution, SBE-β-CD 10% (w/w), 20° C. followed by 48 hours at 4° C.): 70.7 µg/mL (≈ 294 µM)
- solubility (aqueous SBE-β-CD solution, SBE-β-CD 20% (w/w), 20° C. followed by 48 hours at 4° C.): 165 µg/mL (≈ 687 µM)
- solubility (aqueous SBE-β-CD solution, SBE-β-CD 30% (w/w), 20° C. followed by 48 hours at 4° C.): 286 µg/mL (≈ 1190 µM)
- solubility (aqueous SBE-β-CD solution, SBE-β-CD 40% (w/w), 20° C. followed by 48 hours at 4° C.): 457 µg/mL (≈ 1900 µM)
- solubility at 4 h (aqueous SBE-β-CD solution, 20 °C, SBE-β-CD 2.5% (w/w), 20° C., read-out: AOL solubility): 29.3 µg/mL (≈ 122 µM)
- solubility at 4 h (aqueous SBE-β-CD solution, 20 °C, SBE-β-CD 5% (w/w), 20° C., read-out: AOL solubility): 59.7 µg/mL (≈ 248 µM)
- solubility at 4 h (aqueous SBE-β-CD solution, 20 °C, SBE-β-CD 10% (w/w), 20° C., read-out: AOL solubility): 125 µg/mL (≈ 521 µM)
- solubility at 4 h (aqueous SBE-β-CD solution, 20 °C, SBE-β-CD 20% (w/w), 20° C., read-out: AOL solubility): 277 µg/mL (≈ 1150 µM)
- solubility at 4 h (aqueous SBE-β-CD solution, 20 °C, SBE-β-CD 30% (w/w), 20° C., read-out: AOL solubility): 462 µg/mL (≈ 1920 µM)
- solubility at 4 h (aqueous SBE-β-CD solution, 20 °C, SBE-β-CD 40% (w/w), 20° C., read-out: AOL solubility): 667 µg/mL (≈ 2770 µM)
- solubility at 4 h (aqueous SBE-β-CD solution, 25 °C, SBE-β-CD 2.5% (w/w), 25° C., read-out: AOL solubility): 35.8 µg/mL (≈ 149 µM)
- solubility at 4 h (aqueous SBE-β-CD solution, 25 °C, SBE-β-CD 5% (w/w), 25° C., read-out: AOL solubility): 74.9 µg/mL (≈ 312 µM)
- solubility at 4 h (aqueous SBE-β-CD solution, 25 °C, SBE-β-CD 10% (w/w), 25° C., read-out: AOL solubility): 156 µg/mL (≈ 651 µM)
- solubility at 4 h (aqueous SBE-β-CD solution, 25 °C, SBE-β-CD 20% (w/w), 25° C., read-out: AOL solubility): 340 µg/mL (≈ 1420 µM)
- solubility at 4 h (aqueous SBE-β-CD solution, 25 °C, SBE-β-CD 30% (w/w), 25° C., read-out: AOL solubility): 575 µg/mL (≈ 2390 µM)
- solubility at 4 h (aqueous SBE-β-CD solution, 25 °C, SBE-β-CD 40% (w/w), 25° C., read-out: AOL solubility): 844 µg/mL (≈ 3510 µM)
- solubility at 4 h (aqueous SBE-β-CD solution, 30 °C, SBE-β-CD 2.5% (w/w), 30° C., read-out: AOL solubility): 44.7 µg/mL (≈ 186 µM)
- solubility at 4 h (aqueous SBE-β-CD solution, 30 °C, SBE-β-CD 5% (w/w), 30° C., read-out: AOL solubility): 96.2 µg/mL (≈ 400 µM)
- solubility at 4 h (aqueous SBE-β-CD solution, 30 °C, SBE-β-CD 10% (w/w), 30° C., read-out: AOL solubility): 197 µg/mL (≈ 821 µM)
- solubility at 4 h (aqueous SBE-β-CD solution, 30 °C, SBE-β-CD 20% (w/w), 30° C., read-out: AOL solubility): 427 µg/mL (≈ 1780 µM)
- solubility at 4 h (aqueous SBE-β-CD solution, 30 °C, SBE-β-CD 30% (w/w), 30° C., read-out: AOL solubility): 720 µg/mL (≈ 3000 µM)
- solubility at 4 h (aqueous SBE-β-CD solution, 30 °C, SBE-β-CD 40% (w/w), 30° C., read-out: AOL solubility): 1040 µg/mL (≈ 4340 µM)
- solubility at 4 h (aqueous cyclodextrin solution, 20 °C, HP-β-CD 10% (w/w), 20° C., read-out: AOL solubility): 61.3 µg/mL (≈ 255 µM)
- solubility at 4 h (aqueous cyclodextrin solution, 20 °C, HP-β-CD 20% (w/w), 20° C., read-out: AOL solubility): 145 µg/mL (≈ 602 µM)
- solubility at 4 h (aqueous cyclodextrin solution, 20 °C, HP-β-CD 30% (w/w), 20° C., read-out: AOL solubility): 243 µg/mL (≈ 1010 µM)
- solubility at 4 h (aqueous cyclodextrin solution, 20 °C, HP-β-CD 40% (w/w), 20° C., read-out: AOL solubility): 344 µg/mL (≈ 1430 µM)
- solubility at 4 h (aqueous cyclodextrin solution, 25 °C, HP-β-CD 2.5% (w/w), 25° C., read-out: AOL solubility): 19.5 µg/mL (≈ 81.1 µM)
- solubility at 4 h (aqueous cyclodextrin solution, 25 °C, HP-β-CD 5% (w/w), 25° C., read-out: AOL solubility): 40.1 µg/mL (≈ 167 µM)
- solubility at 4 h (aqueous cyclodextrin solution, 25 °C, HP-β-CD 10% (w/w), 25° C., read-out: AOL solubility): 83.9 µg/mL (≈ 349 µM)
- solubility at 4 h (aqueous cyclodextrin solution, 25 °C, HP-β-CD 20% (w/w), 25° C., read-out: AOL solubility): 184 µg/mL (≈ 766 µM)
- solubility at 4 h (aqueous cyclodextrin solution, 25 °C, HP-β-CD 30% (w/w), 25° C., read-out: AOL solubility): 287 µg/mL (≈ 1200 µM)
- solubility at 4 h (aqueous cyclodextrin solution, 25 °C, HP-β-CD 40% (w/w), 25° C., read-out: AOL solubility): 418 µg/mL (≈ 1740 µM)
- solubility at 4 h (aqueous cyclodextrin solution, 30 °C, 30° C., 40% (w/w) HP-β-CD, read-out: highest solubility reached): 650 µg/mL (≈ 2700 µM)
- solubility at 4 h (aqueous cyclodextrin solution, 30 °C, 30° C., 40% SBE-β-CD, read-out: solubility): > 1000 µg/mL
- solubility at 4 h (aqueous cyclodextrin solution, 30 °C, HP-β-CD 2.5% (w/w), 30° C., read-out: AOL solubility): 26.1 µg/mL (≈ 109 µM)
- solubility at 4 h (aqueous cyclodextrin solution, 30 °C, HP-β-CD 5% (w/w), 30° C., read-out: AOL solubility): 51.4 µg/mL (≈ 214 µM)
- solubility at 4 h (aqueous cyclodextrin solution, 30 °C, HP-β-CD 10% (w/w), 30° C., read-out: AOL solubility): 114 µg/mL (≈ 476 µM)
- solubility at 4 h (aqueous cyclodextrin solution, 30 °C, HP-β-CD 20% (w/w), 30° C., read-out: AOL solubility): 255 µg/mL (≈ 1060 µM)
- solubility at 4 h (aqueous cyclodextrin solution, 30 °C, HP-β-CD 30% (w/w), 30° C., read-out: AOL solubility): 458 µg/mL (≈ 1900 µM)
Structure (SMILES): COc1ccc(-c2cc(=S)ss2)cc1 [AOL, 5-(4-methoxyphenyl)-3H-1,2-dithiole-3-thione]
